{
  "source": "patent US20140341916A1",
  "about": "“THERAPEUTIC COMBINATIONS AND METHODS OF TREATING MELANOMA” (Genentech, Inc., priority 2011, published 2014)",
  "key": {"[1]": {"system": "COLO 829 melanoma xenograft", "assay": "In vivo efficacy, subcutaneous melanoma xenograft, tumor volume / % TGI", "design": "species or system mice", "protocol": "The average tumor volumes were determined from 10 animals per group. Tumor volumes were measured twice per week until study end. Tumor volumes were measured in two dimensions (length and width) using UltraCal IV calipers (Model 54 10 111, Fred V. Fowler Company; Newton, Mass.). The following formula was used with Excel, version 12.2.8 (Microsoft; Redmond, Wash.) to calculate tumor volume: Tumor Volume (mm3)=(length×width)×0.5\nTo analyze the repeated measurement of tumor volumes from the same animals over time, a mixed-modeling Linear Mixed Effects (LME) approach was used (Pinheiro et al. 2009). This approach can address both repeated measurements and a modest drop-out rate due to non-treatment-related termination of animals prior to study end. Cubic regression splines were used to fit a non-linear profile to the time courses of log 2 tumor volume at each dose level. These non-linear profiles were then related to dose within the mixed model. Tumor growth inhibition (TGI) as a percentage of vehicle was calculated as percent area under the fitted curve (AUC) per day in relation to the vehicle, using the following formula:\nTo get uncertainty intervals (UIs) for % TGI, the fitted curve and the fitted covariance matrix were used to generate a random sample as an approximation to the distribution of % TGI. The random sample is composed of 1000 simulated realizations of the fitted-mixed model, where the % TGI has been recalculated for each realization. Here, in the reported UI is the value for which 95% of the time, the recalculated values of % TGI will fall in this region given the fitted model. The 2.5 and 97.5 percentiles of the simulated distribution were used as the upper and lower UIs.\nThe COLO 829 xenograft model was chosen as representative of medium levels of ETBR expression, further increasing the stringency of the combination studies. Tumors were grown to an average size of approximately 200 mm^3, whereupon animals were randomized into groups of 9 each. An appropriate vehicle control (Klucel LF) or G00044364.1-12 (RG7204) at doses of 10 mpk or 30 mpk were administered orally twice a day for 21 days starting on day 0."}, "[2]": {"system": "phosphor-ERK", "assay": "Phospho-ERK in melanoma cells, Western blot", "type": "cell-based, human", "details": "IPC-298 cells (BRAF wild-type, RAS Q61L), 24 h", "experimental": "(§1) Melanoma cell lines UACC-257X2.2, A2058, COLO 829, IPC-298 (ATCC) were treated with a BRAF inhibitor drug (“BRAFi”), specifically RG7204 at varying concentrations by adding the appropriate drug volume to cells in culture for 24 h on four-well dishes.\nTo test whether the increase in ETBR transcripts due to BRAFi treatment also results in any changes in ETBR total protein levels, Western blot experiments were performed on the same cell lines treated with BRAFi RG7204 as described above. For Western blotting, the following reagents were used: for detection of proteins: an anti-ETBR in-house generated monoclonal antibody 1H1.8.5, anti-Phospho-p44/42 MAPK (Erk1/2) (Thr202/Tyr204) antibody (9101, Cell Signaling Technology), anti-p44/42 MAPK (Erk1/2) antibody (9102, Cell Signaling Technology) and as controls, a rabbit polyclonal anti-GAPDH (glyceraldehyde-3-phosphate dehydrogenase) antibody (PA1-987; Affinity Bioreagents) and mouse monoclonal anti-β-Tubulin antibody (556321, BD Pharmingen). The results for UACC-257X2.2 are shown in FIG. 4B, the results for A2058 are shown in FIG. 8B, the results for COLO 829 are shown in FIG. 6B and the results for IPC-298 are shown in FIG. 10."}, "[3]": {"system": "ETBR surface protein", "assay": "Surface ETBR protein in live melanoma cells, FACS", "type": "cell-based, human", "details": "24 h", "experimental": "as §1\n(§2) To determine whether the observed increases in total ETBR protein level due to BRAFi treatment also results in an increase of ETBR surface protein levels, a fluorescence-activated cell sorting (FACS) analysis was performed. Cells were harvested in PBS with 2.5 mmol/L EDTA and washed in PBS buffer containing 1% FBS. All subsequent steps were carried out at 4° C. Cells were incubated for 1 hour with 3 μg/mL anti ETBR antibody Hu5E9v1, followed by anti-human IgG fluorescent detection reagent (A11013; Invitrogen). Cells were then analyzed with a FACS Calibur flow cytometer (BD Biosciences). The results for UACC-257X2.2 are shown in FIG. 4C, the results for A2058 are shown in FIG. 8C, and the results for COLO 829 are shown in FIG. 6C.\nMelanoma cell lines A2058, COLO 829, SK23-MEL and IPC-298 (ATCC) were treated with a MEK inhibitor drug (“MEKi-973” or “MEKi-623”), at varying concentrations (0 μM, 0.01 μM, 0.1 μM or 1 μM) by adding the appropriate drug volume to cells in culture for 24 h on four-well dishes.\nas §2, with “MEKi” for “BRAFi”, “performed as described above.” for “performed.”, “Biosciences).” for “Biosciences). The results for UACC-257X2.2 are shown in FIG. 4C, the results for A2058 are shown in FIG. 8C, and the results for COLO 829 are shown in FIG. 6C.”"}, "[4]": {"system": "A2058", "assay": "In vitro killing of A2058 by RG7204 (data not shown)", "type": "cell-based, human"}, "[5]": {"system": "ETBR transcript", "assay": "PD study, ETBR transcript in COLO 829 tumors, Taqman, normalized to GAPDH", "type": "in vivo, mice", "details": "RG7204 10 mpk or 30 mpk twice a day for 3 days", "experimental": "A2058 or COLO 829 tumors were grown to an average size of approximately 200 mm^3, whereupon animals were randomized into groups of 5-6 each. For the BRAFi PD study, an appropriate vehicle control (Klucel LF) or RG7204 at doses of 10 mpk or 30 mpk were administered twice a day for 3 days (FIG. 27A). For the MEKi PD study, an appropriate vehicle control or MEKi-973 at doses of 5 mpk and 10 mpk were administered orally once a day for 3 days (FIG. 27B). Flash frozen tumors harvested at end of study were homogenized and processed for RNA and/or protein. Taqman assays were set up using reagents from Applied Biosystems (ABI, Foster City, Calif.) and assayed using 7500 Real Time PCR machine and software from ABI. Primer-probe sets were designed with primers flanking a fluorogenic probe dual labeled with Reporter dye FAM and quencher dye TAMRA. ETBR transcript levels in the tumors were normalized against transcript levels of reference genes such as Hprt1 (hypoxanthine phosphoribosyltransferase 1) or GAPDH (glyceraldehyde 3 phosphate dehydrogenase) using primer and probe sets that were specific to the human homologs of these genes."}},
  "data": [
    {"smiles": "CCCS(=O)(=O)Nc1ccc(F)c(C(=O)c2c[nH]c3ncc(-c4ccc(Cl)cc4)cc23)c1F", "note": "[RG7204, propane-1-sulfonic acid {3-[5-(4-chlorophenyl)-1H-pyrrolo[2,3-b]pyridine-3-carbonyl]-2,4-difluoro-phenyl}-amide]", "values": [
      {"measurement": "% TGI Single Agent BRAFi vs. control", "setting": "[1]; BRAFi Qdx21 10 mg/kg", "value": 27, "unit": "%"},
      {"measurement": "% TGI Single Agent BRAFi vs. control", "setting": "[1]; BRAFi Qdx21 30 mg/kg", "value": 83, "unit": "%"},
      {"measurement": "phosphor-ERK level", "setting": "[2]", "value": "appears to activate the levels of phosphor-ERK"},
      {"measurement": "surface level of ETBR protein vs untreated control cells", "setting": "[3]; A2058 cells", "value": "appears to increase the surface levels of ETBR protein"},
      {"measurement": "surface level of ETBR protein vs untreated control cells", "setting": "[3]; COLO 829 cells", "value": "appears to increase the surface levels of ETBR protein"},
      {"measurement": "surface level of ETBR protein vs untreated control cells", "setting": "[3]; IPC-298 cells", "value": "appears to reduce ETBR levels"},
      {"measurement": "surface level of ETBR protein vs untreated control cells", "setting": "[3]; UACC-257X2.2 cells", "value": "appears to increase the surface levels of ETBR protein"},
      {"measurement": "in vitro killing efficacy", "setting": "[4]", "value": "> 20", "unit": "µM"},
      {"measurement": "ETBR mRNA in tumors vs control vehicle", "setting": "[5]", "value": "induces ETBR mRNA in vivo"}
    ]}
  ]
}
